From patent US20090143279A1 (priority 2007, published 2009)
Like-named read-outs stand apart in the source and are kept apart here.

Experiments:
[1] = system: OXPHOS gene expression; assay type: cell-based, mouse
[2] = system: C2C12 myotubes
[3] = system: cellular dehydrogenase activity
[4] = system: mtOXPHOS transcripts; assay type: cell-based, mouse
[5] = system: cytochrome c; assay type: cell-based, mouse
[6] = system: nuOXPHOS transcripts; assay type: cell-based, mouse
[7] = system: mitochondrial membrane potential; assay type: cell-based, mouse
[8] = system: reactive oxygen species; assay type: cell-based, mouse
[9] = composite Z-score vs DMSO, Conc 20 μM
[10] = normalized composite Z-score vs mock-treated (DMSO) wells, Conc 20 μM
[11] = 20 μM, composite Z-score vs DMSO
[12] = composite Z-score vs mock-treated (DMSO) wells, Conc 20 μM
[13] = Conc 20 μM, normalized score vs mock-treated (DMSO) wells

Sequence of cytochrome c (P62897 whole entry): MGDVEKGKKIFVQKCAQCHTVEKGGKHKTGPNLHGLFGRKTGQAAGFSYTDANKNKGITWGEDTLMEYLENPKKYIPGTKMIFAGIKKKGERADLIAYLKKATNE

CN[C@@H](C)[C@H](O)c1ccccc1 [ephedrine]
GE-HTS [1, 9]: −0.074 | Viability [2, 9]: −0.536 | MTT [3, 9]: −2.342 | mitoOX [4, 9]: −0.056 | cyt c [5, 9]: 0.077 | nucOX [6, 9]: −0.100 | ΔΨm [7, 9]: −0.834 | ROS [8, 9]: 1.633

CN1CCCC(CC2c3ccccc3Sc3ccccc32)C1 (stereo not drawn) [metixene]
GE-HTS [1]: −1.190 | Viability [2]: 1.221 | MTT [3]: −0.786 | mitoOX [4]: −1.236 | cyt c [5]: 0.097 | nucOX [6]: −1.058 | ΔΨm [7]: −0.713 | ROS [8]: −0.834

C[C@]12CCC(=O)C(O)=C1CC[C@@H]1[C@@H]2CC[C@]2(C)C(=O)CC[C@@H]12 [formestane]
GE-HTS [1, 9]: 0.097 | Viability [2, 9]: −0.582 | MTT [3, 9]: −0.725 | mitoOX [4, 9]: 0.121 | cyt c [5, 9]: −0.115 | nucOX [6, 9]: 0.050 | ΔΨm [7, 9]: −0.608 | ROS [8, 9]: 1.013

C=C1C(N)CC2CC1C2(C)C (stereo not drawn) [3-amino-beta-pinene]
GE-HTS [1, 10]: −1.376 | Viability [2, 10]: −0.108 | MTT [3, 10]: −0.906 | mitoOX [4, 10]: −1.138 | cyt c [5, 10]: 0.460 | nucOX [6, 10]: −1.341 | ΔΨm [7, 10]: −0.519 | ROS [8, 10]: 0.421

Clc1ccc(C(c2ccccc2Cl)C(Cl)Cl)cc1 (stereo not drawn) [mitotane]
GE-HTS [1, 11]: −0.030 | Viability [2, 11]: −1.631 | MTT [3, 11]: −1.708 | mitoOX [4, 11]: −0.244 | cyt c [5, 11]: −0.216 | nucOX [6, 11]: 0.072 | ΔΨm [7, 11]: −0.542 | ROS [8, 11]: 0.460

CC(=O)O[C@@H]1CC2C(C)(C)C(=O)CC[C@]2(C)C2CC[C@]3(C)C(=CC(=O)O[C@H]3c3ccoc3)[C@@]21C (stereo partly drawn) [dihydrodeoxygedunin]
GE-HTS [1, 10]: −1.009 | Viability [2, 10]: −0.004 | MTT [3, 10]: −0.637 | mitoOX [4, 10]: −0.631 | cyt c [5, 10]: 0.751 | nucOX [6, 10]: −1.073 | ΔΨm [7, 10]: 0.443 | ROS [8, 10]: 1.030

C=C1C[C@]23C[C@@]1(O)CC[C@H]2[C@@]12C=C[C@H](O)[C@@](C)(C(=O)O1)[C@H]2[C@@H]3C(=O)O [gibberellic acid]
GE-HTS [1]: 0.021 | GE-HTS [1, 12]: −0.014 | Viability [2]: −0.171 | Viability [2, 12]: −0.081 | MTT [3]: −0.432 | MTT [3, 12]: 0.661 | mitoOX [4]: −0.090 | mitoOX [4, 12]: −0.264 | cyt c [5]: 0.714 | cyt c [5, 12]: 0.031 | nucOX [6]: 0.066 | nucOX [6, 12]: 0.077 | ΔΨm [7]: 2.622 | ΔΨm [7, 12]: −0.439 | ROS [8]: 0.246 | ROS [8, 12]: 0.512

CC(C)=CCC/C(C)=C/CC/C(C)=C/CO [farnesol]
GE-HTS [1, 9]: −0.066 | Viability [2, 9]: −1.327 | MTT [3, 9]: −1.554 | mitoOX [4, 9]: −0.401 | cyt c [5, 9]: −0.437 | nucOX [6, 9]: 0.106 | ΔΨm [7, 9]: −0.153 | ROS [8, 9]: 0.550

Cc1cc(O)c(C=O)c2c1C(=O)Oc1c(C)c(O)c3c(c1O2)C(O)OC3=O (stereo not drawn) [norstictic acid]
GE-HTS [1, 9]: −0.800 | GE-HTS [1, 12]: 0.518 | Viability [2, 9]: 0.730 | Viability [2, 12]: −0.899 | MTT [3, 9]: −0.613 | MTT [3, 12]: −0.567 | mitoOX [4, 9]: −1.023 | mitoOX [4, 12]: −0.148 | cyt c [5, 9]: 0.467 | cyt c [5, 12]: 0.471 | nucOX [6, 9]: −0.639 | nucOX [6, 12]: 0.774 | ΔΨm [7, 9]: −0.628 | ΔΨm [7, 12]: 0.903 | ROS [8, 9]: −0.426 | ROS [8, 12]: 0.560

C=C[C@H]1C[N@@]2CC[C@H]1C[C@@H]2[C@@H](O)c1ccnc2ccc(OC)cc12 [quinidine]
GE-HTS [1, 9]: 0.849 | Viability [2, 9]: 0.916 | MTT [3, 9]: −0.233 | mitoOX [4, 9]: 0.501 | cyt c [5, 9]: 1.286 | nucOX [6, 9]: 0.956 | ΔΨm [7, 9]: 1.187 | ROS [8, 9]: 1.326

COC(=O)[C@@H]1OC(=O)C2OC23[C@@]1(C)CCC1[C@@]2(C)CCC(=O)C(C)(C)C2C[C@@H](OC(C)=O)[C@]13C (stereo partly drawn) [dihydrogedunic acid, methyl ester]
GE-HTS [1, 12]: 0.244 | Viability [2, 12]: 0.103 | MTT [3, 12]: −1.062 | mitoOX [4, 12]: 0.438 | cyt c [5, 12]: −0.443 | nucOX [6, 12]: 0.141 | ΔΨm [7, 12]: −0.320 | ROS [8, 12]: 0.411

COc1ccc(-c2c(O)c3c(OC)c4c(cc3oc2=O)OC(C)(C)C=C4)cc1 [robustic acid, reference compound]
GE-HTS (composite Z-score) [1, 13]: −0.930 | Viability (composite Z-score) [2, 13]: −1.213 | MTT (composite Z-score) [3, 13]: −1.831 | mitoOX (composite Z-score) [4, 13]: −0.587 | cyt c (composite Z-score) [5, 13]: −0.459 | nucOX (composite Z-score) [6, 13]: −0.973 | ΔΨm (composite Z-score) [7, 13]: −1.086 | ROS (composite Z-score) [8, 13]: −0.119

2-hydroxy-5 (6)epoxy-tetrahydrocaryophyllene
GE-HTS [1, 10]: −0.347 | Viability [2, 10]: −0.772 | MTT [3, 10]: −0.836 | mitoOX [4, 10]: −0.043 | cyt c [5, 10]: 0.236 | nucOX [6, 10]: −0.447 | ΔΨm [7, 10]: −0.739 | ROS [8, 10]: 0.074
